The values below are quoted from earlier work in patent US20260207481A1, “INTRANASAL […] OF C[…] TREAT CENTRAL NERVOUS SYSTEM DISORDERS” (Nose to Brain Therapeutics LLC, priority 2019, published 2026).

The structures appear in SMILES notation.

For data set [1] the following is noted: oral mucosal sprays compared to IV administration (FIG. 2).
The next data set has as its target CB2 (Homo sapiens, UniProt P34972).

CB2, sequence (P34972 whole entry): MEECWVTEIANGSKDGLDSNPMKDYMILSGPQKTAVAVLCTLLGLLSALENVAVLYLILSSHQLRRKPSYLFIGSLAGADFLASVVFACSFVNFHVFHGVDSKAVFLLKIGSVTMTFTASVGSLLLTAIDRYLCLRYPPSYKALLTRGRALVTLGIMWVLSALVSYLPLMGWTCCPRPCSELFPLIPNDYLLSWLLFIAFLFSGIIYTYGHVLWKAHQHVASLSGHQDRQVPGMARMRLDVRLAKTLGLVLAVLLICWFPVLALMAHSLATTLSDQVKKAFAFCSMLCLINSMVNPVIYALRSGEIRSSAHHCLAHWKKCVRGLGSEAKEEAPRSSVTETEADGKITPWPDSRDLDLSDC

For the compound `C=C(C)[C@@H]1CCC(C)=C[C@H]1c1c(O)cc(CCCCC)cc1O` [CBD, Cannabidiol], the Cmax result in data set [1] was “poor”. For the same compound, the “binding affinity to CB2” value at CB2 is given as “minimal”.
